Reference: the supplement of paper PMC10307832

Legend:
Assay in all cases: relative viability (nuclei count vs DMSO), 5 days (fraction); higher = more cells survive
[1] = compound: C1=CC2=C(C=C(C(=C2N=C1)O)N=NC3=CC4=C(C=C3)C=C(C=C4)S(=O)(=O)O)S(=O)(=O)O + CS(=O)(=O)CCNCc1ccc(-c2ccc3ncnc(Nc4ccc(OCc5cccc(F)c5)c(Cl)c4)c3c2)o1 [Lapatinib] (partner 2 µM)
Summary of the method: (§1)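 Lung cancer cell lines were seeded in 1536-well plates and dosed by pin tool the next day, with either a single drug or a fixed anchor-drug dose combined with five library-drug doses (not always all listed) spaced in √10 steps. Five days later, one step fixed the cells and stained their nuclei (final 0.05% Triton X-100, 1% formaldehyde, 1 ug/ml Hoechst), and nuclei were counted on 4× images. Relative viability is the nuclei count in treated wells divided by the count in vehicle wells, and each value is the median of duplicate plates.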

[2] = compound: O=C(NC1CCNCC1)c1n[nH]cc1NC(=O)c1c(Cl)cccc1Cl [AT-7519] + Cc1nc(Nc2ncc(C(=O)Nc3c(C)cccc3Cl)s2)cc(N2CCN(CCO)CC2)n1 [Dasatinib] (partner 0.075 µM)
Summary of the method: as §1

[3] = compound: C1=CC2=C(C=C(C(=C2N=C1)O)N=NC3=CC4=C(C=C3)C=C(C=C4)S(=O)(=O)O)S(=O)(=O)O + COc1cc2c(Oc3ccc(NC(=O)C4(C(=O)Nc5ccc(F)cc5)CC4)cc3F)ccnc2cc1OCCCN1CCOCC1 [Foretinib] (partner 0.25 µM)
Summary of the method: as §1

[4] = compound: O=C(NC1CCNCC1)c1n[nH]cc1NC(=O)c1c(Cl)cccc1Cl [AT-7519] + O=C(c1cc(Cc2n[nH]c(=O)c3ccccc23)ccc1F)N1CCN(C(=O)C2CC2)CC1 [Olaparib] (partner 8 µM)
Summary of the method: as §1

UMC-11
relative viability ([1]; first compound 0.08 µM): 1.07 | relative viability ([1]; first compound 0.253 µM): 0.969 | relative viability ([1]; first compound 0.8 µM): 0.889 | relative viability ([1]; first compound 2.53 µM): 1.02 | relative viability ([1]; first compound 8 µM): 0.716 | relative viability ([2]; first compound 0.01 µM): 0.413 | relative viability ([2]; first compound 0.03162 µM): 0.482 | relative viability ([2]; first compound 0.3162 µM): 0.297 | relative viability ([2]; first compound 1 µM): 0.238 | relative viability ([3]; first compound 0.08 µM): 1.13 | relative viability ([3]; first compound 0.253 µM): 1.04 | relative viability ([3]; first compound 0.8 µM): 0.938 | relative viability ([3]; first compound 2.53 µM): 1.05 | relative viability ([3]; first compound 8 µM): 1.01 | relative viability ([4]; first compound 0.01 µM): 0.333 | relative viability ([4]; first compound 0.03162 µM): 0.368 | relative viability ([4]; first compound 0.3162 µM): 0.373 | relative viability ([4]; first compound 1 µM): 0.229
